Laboratory results as given in article PMC12491701, “Discovery of an APP-selective BACE1 inhibitor for Alzheimer's disease” (Neurotherapeutics, 2025).

Tests used:
[1] = Brain tissue binding assay; type: in vitro ADME, mouse; settings: brain homogenate, 2 µM compound
Procedure: The […]
(§1) KIAM = (tr – t0) / t0; Pm = (KIAM / MW4) x 1010
(§2) Compounds with a Pm >0.85 are predicted to be BBB permeable (CNS+) at pH 7.4.
Brain Tissue Binding Assay
Brain tissue was homogenized in PBS (pH 7.4) (1: 3 weight(mg)/volume(µL)) and the protein concentration determined using the Micro BCA™ Pr otein Assay Kit (Thermo Fisher Scientific, Cat#23235). Brain homogenate was diluted to 20 mg/mL in PBS (pH 7.4) and added to Slide-A-Lyzer™ MINI Dialysis Devices, 10K MWCO dialysis cups (Thermo Fisher Scientific, Cat#PI88401) in a 48-well plate containing PBS (500 µL; pH 7.4). 1 µL of 1 mM compound was added to the brain homogenate (final concentration: 2 µM compound, 0.5% DMSO) and incubated on a rocker for 4.5 hours at 37 °C. 50 µL of brain homogenate (within the dialysis cup) and PBS (within the 48-well plate) were transferred to new microcentrifuge tubes containing 200 µL of quenching reagent (100% acetonitrile) containing internal standard. Solutions were clarified by centrifugation (16,000 x g, 5 min) and the supernatants were transferred to new tubes and lyophilized. Samples were reconstituted in 100 µL of 50/50/0.1 (Water/Acetonitrile/Formic Acid) prior to analysis via LC-MS/MS.
The % of the unbound drug was calculated using the following equation: fubound = [normalized peak area in buffer side / normalized peak area in brain side] x 100

[2] = system: BACE1 cleavage of rat APP; assay: Pilot PD of FAH65 vs. verubecestat in rats (CSF and medial cortex biomarkers); type: in vivo; settings: oral, 30 mg/kg
cathepsin D (CatD) = biological target: T1, cathepsin D (CatD) (Homo sapiens, UniProt P07339); assay: Cathepsin D activity assay; type: biochemical
T1 construct: purchased R&D Systems 1014-AS
T1 sequence (P07339 65-412): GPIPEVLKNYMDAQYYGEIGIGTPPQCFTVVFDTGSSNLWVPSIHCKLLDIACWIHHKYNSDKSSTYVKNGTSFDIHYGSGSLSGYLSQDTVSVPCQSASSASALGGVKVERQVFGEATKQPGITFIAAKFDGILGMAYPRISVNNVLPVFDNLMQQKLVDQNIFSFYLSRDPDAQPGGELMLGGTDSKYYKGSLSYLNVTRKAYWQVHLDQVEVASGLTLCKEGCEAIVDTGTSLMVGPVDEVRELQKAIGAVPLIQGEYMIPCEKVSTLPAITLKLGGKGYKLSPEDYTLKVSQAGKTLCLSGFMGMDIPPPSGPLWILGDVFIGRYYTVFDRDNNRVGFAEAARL
Procedure: The effects of candidate ASBIs on cathepsin D (CatD) activity was assessed using the R&D Systems CatD activity assay kit (Catalog #: 1014-AS and ES001) according to the manufacturer's instructions. For the assay, 4 μL of assay buffer was added to each well, followed by 2 μL of CatD diluted in assay buffer to 5 ng/uL. Then, 2 μL of inhibitor, at concentrations along an 11 pt. two-fold dilution series starting at 50 μM, were added to appropriated wells and incubated for 30 min at room temperature. For all dilutions of inhibitor, drug stock solutions of 10 mM in DMSO were diluted to 50 μM in water; subsequent dilutions were in 2.5 % DMSO. Afterwards, 2 μL of fluorogenic CatD substrate, diluted to 50 μM in assay buffer, were added to each well, after which the signal generated was read every 30 min at 25 °C for 1hr.

[3] = PK of FAH65E(-) in ApoE4-TR:5xFAD mice; type: in vivo, mouse; settings: 30 mkd oral, from brain Fu
Procedure: A PK/PD study of FAH65E(-) hydrochloride was performed using ApoE4-TR:5xFAD mice that express APOE4 under the control of the endogenous mouse APOE promoter crossed to 5xFAD mice (Tg6799) which co-express five FAD mutations (APP K670 N/M671L + I716V + V717I and PS1 M146L + L286V) under the control of the neuron-specific mouse Thy-1 promoter. The resulting mice, on a 97 % C57Bl/6J and 3 % SJL background, are homozygous for APOE4 and hemizygous for the 5XFAD transgenes. Both male and female mice 6–8 months of age were used. Mice received two doses (a.m. and p.m.) of 30 mg/kg FAH65E(-) by oral gavage on day 1; on day 2, after a single dose (a.m.) mice were euthanized at 1, 2, 4 and 6 h, n = 3 per time point. FAH65 and sAPPβ levels in brain were determined in brain tissue by LC-MS (see Supplementary Methods) and ELISA , respectively.

[4] = biological target: T2, human serum albumin (HSA) (Homo sapiens, UniProt P02768); assay: Human serum albumin (HSA) binding assay; type: in vitro ADME
T2 construct: purchased Chiral Technologies H15L-109
T2 sequence (P02768 25-609): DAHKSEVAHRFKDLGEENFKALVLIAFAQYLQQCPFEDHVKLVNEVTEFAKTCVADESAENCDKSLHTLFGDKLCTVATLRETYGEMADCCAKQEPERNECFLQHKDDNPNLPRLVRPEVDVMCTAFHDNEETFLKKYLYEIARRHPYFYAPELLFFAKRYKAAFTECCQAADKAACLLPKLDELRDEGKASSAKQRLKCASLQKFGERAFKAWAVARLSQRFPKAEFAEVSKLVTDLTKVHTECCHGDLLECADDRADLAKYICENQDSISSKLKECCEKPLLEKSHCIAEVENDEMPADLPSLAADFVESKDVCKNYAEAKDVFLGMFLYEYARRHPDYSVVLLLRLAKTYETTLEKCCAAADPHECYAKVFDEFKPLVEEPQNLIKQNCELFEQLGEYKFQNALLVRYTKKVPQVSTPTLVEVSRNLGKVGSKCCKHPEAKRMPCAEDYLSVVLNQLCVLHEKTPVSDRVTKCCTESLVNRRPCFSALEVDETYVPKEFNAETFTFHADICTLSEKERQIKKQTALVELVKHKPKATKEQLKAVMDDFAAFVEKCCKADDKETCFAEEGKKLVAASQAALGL
Procedure: Human serum albumin (HSA) binding assay
The liquid chromatography-ultraviolet/visible spectroscopy (LC-UV/Vis) assay was performed on a 1290 Infinity HPLC system (Agilent Technologies) with an HPLC column containing immobilized HSA
([…]® CAN, Chiral Technologies, Cat#H15L-109, 5 µm 50 x 4 mm). The HPLC method utilized an isocratic gradient containing 100% 6.7 mM phosphate buffer saline (pH 7.4). The retention time of the compound (tr) and injection peak were recorded.
The percent protein binding (P) was calculated using the following equations:
K’ = (tr – tm) / tm; P = 100 x [K’ / (K’ + 1)] […]
The […]
as §1, §2
Brain Tissue Binding Assay […]
Cat#23235). Brain homogenate was diluted to 20 mg/mL in PBS (pH 7.4) and added to Slide-A-Lyzer™ MINI Dialysis Devices, 10K MWCO dialysis cups (Thermo Fisher Scientific, Cat#PI88401) in a 48-well plate containing PBS (500 µL; pH 7.4). 1 µL of 1 mM compound was added to the brain homogenate (final concentration: 2 µM compound, 0.5% DMSO) and incubated on a rocker for 4.5 hours at 37 °C. 50 µL of brain homogenate (within the dialysis cup) and PBS (within the 48-well plate) were transferred to new microcentrifuge tubes containing 200 µL of quenching reagent (100% acetonitrile) containing internal […]
standard. […]

BACE1 cleavage of NRG1 = biological target: T3, BACE1 cleavage of NRG1 (Homo sapiens, UniProt P56817); assay: SEAP-NRG assay; type: cell-based
T3 construct: with or without full-length wild-type BACE1; expressed in transfected cells; host or cells: HEK293
T3 sequence (P56817 46-501): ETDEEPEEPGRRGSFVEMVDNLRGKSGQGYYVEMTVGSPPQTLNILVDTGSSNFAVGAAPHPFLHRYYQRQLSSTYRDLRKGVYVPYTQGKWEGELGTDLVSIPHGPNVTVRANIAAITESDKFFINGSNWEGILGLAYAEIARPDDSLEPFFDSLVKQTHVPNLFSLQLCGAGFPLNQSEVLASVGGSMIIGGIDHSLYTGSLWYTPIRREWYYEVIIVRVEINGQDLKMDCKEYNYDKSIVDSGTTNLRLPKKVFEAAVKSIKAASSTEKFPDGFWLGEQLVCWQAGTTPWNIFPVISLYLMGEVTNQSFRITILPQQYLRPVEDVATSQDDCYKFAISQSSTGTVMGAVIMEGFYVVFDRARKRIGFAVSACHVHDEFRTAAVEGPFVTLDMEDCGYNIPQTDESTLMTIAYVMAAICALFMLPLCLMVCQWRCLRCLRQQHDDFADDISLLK

Structure (SMILES): Cc1cc(C2(c3cccc(-c4cncnc4)c3)N=C(N)N(C)C2=O)ccc1OC(F)F (stereo not shown) [FAH65]
- Brain tissue binding, funbound [1]: 3.1%
- time post-delivery of lowest sAPPβ in brain (medial cortex) [2]: 6 h
- time post-delivery of lowest sAPPβ in CSF ([2]; 1- and 2-h FAH65 samples not available): 3 h
- Aβ1-40 in CSF compared with Veru-treated rats ([2]; in words): lower
- sAPPα levels in brain medial cortex ([2]; in words): higher
- sAPPβ in CSF compared with Veru ([2]; in words): lower
- inhibition of cathepsin D activity (cathepsin D (CatD); in words): Neither analog significantly inhibited
- IC50 (cathepsin D (CatD); read-out: Cat D IC50): ~47 µM
- Unbound brain concentration at Cmax [3]: 9.6 nM
- Plasma (HSA) binding, funbound [4]: 0.44%
- EC50 (BACE1 cleavage of NRG1; SEAP-NRG1, HEK293): > 10 µM
- IC50 (BACE1 cleavage of NRG1; Table S1): 2 µM
- substrate selectivity IC50 NRG1/IC50 APP (BACE1 cleavage of NRG1; ratio): > 200
